IC50 data for 44 compounds are collected here from patent US9707234B2, “Spirocyclic hetercycle compounds useful as HIV integrase inhibitors” (MERCK SHARP & DOHME CORP., priority 2013, dated 2017).

Read-outs that look alike come from different tables or passages of the source.

In this test the test system is HIV-1 (H9IIIB or NL4-3 virus) replication in MT4-GFP cells. Nature of the test: microbe, parasite or virus in culture. It counts as cell-based. As to conditions: inhibition of reproductive ratio R0, 48-72 h post-infection.
[1] abbreviates: Human immunodeficiency virus 1, NL43, MT4-GFP cells infected with HIV-1, 10% normal human serum, read-out: ViKinG IP (nM) with 10% NHS.
Where [2] appears, read: Human immunodeficiency virus 1, NL43, MT4-GFP cells infected with HIV-1, 100% normal human serum, read-out: ViKinG IP (nM) with 100% NHS.
Setting [3] is: Human immunodeficiency virus 1, NL43, MT4-GFP cells infected with HIV-1, serum free conditions (0% NHS), read-out: ViKinG IP (nM) with 0% NHS.
The mark [4] stands for this setting: MT4-GFP cells infected with HIV-1, 100% normal human serum, read-out: ViKinG IP (nM) with 100% NHS.
Where [5] appears, read: MT4-GFP cells infected with HIV-1, serum free conditions (0% NHS), read-out: ViKinG IP (nM) with 0% NHS.
The mark [6] stands for this setting: MT4-GFP cells infected with HIV-1, 10% normal human serum, read-out: ViKinG IP (nM) with 10% NHS.

For `CCOC(=O)N1CCC2(CC1)N(CC)C(=O)c1c(O)c(=O)c(-c3nnc(Cc4ccc(F)cc4)s3)cn1N2C` [Compound 5], the IC50 is 22 nM under setting [1], 250 nM under setting [2] and 16.4 nM under setting [3].
Turning to `CC1OCCC12N(C)C(=O)c1c(O)c(=O)c(C(=O)NCc3cccc(Cl)c3F)cn1N2C` (single isomer, unassigned) [Compound 135], the IC50 is, setting by setting: under setting [3], 0.9 nM; under setting [4], 486 nM.
As for `CN1C(=O)c2c(O)c(=O)c(C(=O)NCc3ccc(F)cc3F)cn2N(CC2CC2)C12CCOC2` (single isomer, unassigned) [Compound 151], the IC50 was 240 nM under setting [2] and 0.7 nM under setting [3].
For the compound `COCCN1C(=O)c2c(O)c(=O)c(C(=O)NCc3ccc(F)cc3F)cn2CC12COC2` [Compound 70], the IC50 runs as follows: under setting [2], 91 nM; under setting [3], 2.5 nM.
On to `COCCCN1n2cc(C(=O)NCc3ccc(F)cc3F)c(=O)c(O)c2C(=O)N(C)C12CCOC2` (single isomer, unassigned) [Compound 157], for which the IC50 under setting [2] worked out at 111 nM and the IC50 under setting [5] is 2.5 nM.
As for `CCOCCN1C(=O)c2c(O)c(=O)c(C(=O)NCc3ccc(F)cc3F)cn2N(C)C12CCOC2` (single isomer, unassigned) [Compound 125], the IC50 reads like this: under setting [2], 257 nM; under setting [3], 0.8 nM.
`CN1C(=O)c2c(O)c(=O)c(C(=O)NCc3cccc(Cl)c3F)cn2CC12CCOC2` (single isomer, unassigned) [Compound 65]: the IC50 amounted to 60 nM under setting [2] and 1.5 nM under setting [3].
Regarding `CN1C(=O)c2c(O)c(=O)c(-c3nnc(Cc4ccc(F)cc4)s3)cn2N(C)C12CCOC2` (stereo not drawn) [Compound 38], the IC50 is 132 nM under setting [2] and 3.8 nM under setting [3].
As for `CC1OCCC12N(C)C(=O)c1c(O)c(=O)c(C(=O)NCc3cccc(Cl)c3F)cn1N2C` (single isomer, unassigned) [Compound 137], the IC50 was 64 nM under setting [4] and 0.7 nM under setting [5].
Consider `CN1C(=O)c2c(O)c(=O)c(C(=O)NCc3ccc(F)cc3F)cn2N(C)C12CCOC2` (stereo not drawn) [Compound 104], for which the IC50 reads like this: under setting [6], 4 nM; under setting [4], 87 nM; under setting [5], 0.8 nM.
Regarding `COCCCN1n2cc(C(=O)NCc3ccc(F)cc3F)c(=O)c(O)c2C(=O)N(C)C12CCOC2` (single isomer, unassigned) [Compound 158], the IC50 by setting is: under setting [4], 168 nM; under setting [5], 1 nM.
With `CN1C(=O)c2c(O)c(=O)c(C(=O)NCc3c(F)cc(F)cc3F)cn2N(C)C12CCOC2` (single isomer, unassigned) [Compound 105], the IC50 by setting is: under setting [2], 37 nM; under setting [3], 0.8 nM.
In the case of `COCCN1n2cc(C(=O)NCc3ccc(F)cc3F)c(=O)c(O)c2C(=O)N(C)C12CCOC2` (single isomer, unassigned) [Compound 156], the IC50 is, setting by setting: under setting [4], 106 nM; under setting [5], 1.2 nM.
Turning to `CN1C(=O)c2c(O)c(=O)c(C(=O)NCc3ccc(F)c(Cl)c3F)cn2CC12CCOC2` (stereo not drawn) [Compound 55], the IC50 reads like this: under setting [2], 30 nM; under setting [3], 0.6 nM.
As for `CCOC(=O)N1CCC2(CC1)N(C)C(=O)c1c(O)c(=O)c(-c3nnc(Cc4ccc(F)cc4)s3)cn1N2C` [Compound 18], the IC50 by setting is: under setting [1], 13 nM; under setting [2], 254 nM.
Regarding `CN1C(=O)c2c(O)c(=O)c(C(=O)NCc3ccc(F)cc3F)cn2N(C)C12CCNC2` (single isomer, unassigned) [Compound 169], the IC50 was determined as 4.4 nM under setting [3] and 512 nM under setting [4].
For the compound `CCOCCN1C(=O)c2c(O)c(=O)c(C(=O)NCc3cccc(Cl)c3F)cn2CC12CCOC2` (single isomer, unassigned) [Compound 79], the IC50 under setting [3] turned out to be 2.3 nM and the IC50 under setting [4] turned out to be 603 nM.
Consider `COCCN1C(=O)c2c(O)c(=O)c(C(=O)NCc3ccc(F)cc3F)cn2CC12CCOC2` (single isomer, unassigned) [Compound 49], for which the IC50 is, setting by setting: under setting [2], 123 nM; under setting [3], 2.9 nM.
Turning to `O=C(NCc1ccc(F)cc1F)c1cn2c(c(O)c1=O)C(=O)N(CCCCC(F)(F)F)C1(CCOCC1)C2` [Compound 47], the IC50 under setting [2] turned out to be 71 nM and the IC50 under setting [3] worked out at 6.6 nM.
As for `CCOC(=O)N1CCC2(CC1)Cn1cc(-c3nnc(Cc4ccc(F)cc4F)s3)c(=O)c(O)c1C(=O)N2` [Compound 96], the IC50 is, setting by setting: under setting [2], 2240 nM; under setting [3], 69.3 nM.
For the compound `COCN1n2cc(C(=O)NCc3ccc(F)cc3F)c(=O)c(O)c2C(=O)N(C)C12CCOC2` (single isomer, unassigned) [Compound 154], the IC50 under setting [4] turned out to be 37 nM and the IC50 under setting [5] amounted to 0.7 nM.
As for `CN1C(=O)c2c(O)c(=O)c(C(=O)NCc3ccc(F)cc3F)cn2N(CCO)C12CCOC2` (stereo not drawn) [Compound 148], the IC50 was 33 nM under setting [4] and 1.2 nM under setting [5].
In the same order, the values of `CN1C(=O)c2c(O)c(=O)c(C(=O)NCc3ccc(F)cc3)cn2CC12CCOC2` (single isomer, unassigned) [Compound 60] are 42 nM and 3.1 nM.
On the same counts, the results for `COCCN1C(=O)c2c(O)c(=O)c(C(=O)NCc3ccc(F)c(F)c3F)cn2CC12CCOC2` (single isomer, unassigned) [Compound 72] are 290 nM and 4.6 nM.
Regarding `CCCN1C(=O)c2c(O)c(=O)c(C(=O)NCc3ccc(F)cc3F)cn2CC12CCOC2` (racemic) [Compound 67], the IC50 is, setting by setting: under setting [2], 3600 nM; under setting [3], 6.6 nM.
As to `CN1C(=O)c2c(O)c(=O)c(C(=O)NCc3ccc(F)cc3F)cn2N(C)C12CCOC2` (stereo not drawn) [Compound 103], the IC50 turned out to be 6 nM under setting [1], 114 nM under setting [2] and 1.7 nM under setting [5].
Consider `CN1C(=O)c2c(O)c(=O)c(C(=O)NCc3c(F)cc(F)cc3F)cn2CC12CCOC2` (single isomer, unassigned) [Compound 64], for which the IC50 is, setting by setting: under setting [4], 26 nM; under setting [5], 3.3 nM.
Take `CN1C(=O)c2c(O)c(=O)c(C(=O)NCc3ccccc3F)cn2N(C)C12CCOC2` (single isomer, unassigned) [Compound 112]: the IC50 is, setting by setting: under setting [4], 231 nM; under setting [5], 0.9 nM.
`CN1C(=O)c2c(O)c(=O)c(-c3nnc(Cc4ccc(F)cc4F)s3)cn2CC12CCOC2` (stereo not drawn) [Compound 101]: the IC50 is, setting by setting: under setting [2], 70 nM; under setting [3], 4.6 nM.
Consider `COCCCN1C(=O)c2c(O)c(=O)c(C(=O)NCc3ccc(F)cc3F)cn2N(C)C12CCOC2` (single isomer, unassigned) [Compound 124], for which the IC50 came to 22 nM under setting [6], 309 nM under setting [4] and 1.8 nM under setting [5].
As to `CCN1C(=O)c2c(O)c(=O)c(-c3nnc(Cc4ccc(F)cc4F)s3)cn2N(C)C12CCCOC2` (stereo not drawn) [Compound 37], the IC50 runs as follows: under setting [2], 456 nM; under setting [3], 5.3 nM.
As for `COCCN1C(=O)c2c(O)c(=O)c(C(=O)NCc3ccc(F)cc3F)cn2CC12CCCOC2` (single isomer, unassigned) [Compound 83], the IC50 under setting [2] is 3050 nM and the IC50 under setting [3] came out at 7.8 nM.
As to `CC(c1nnc(-c2cn3c(c(O)c2=O)C(=O)N(C)C2(CCOC2)C3)s1)c1ccc(F)cc1F` (stereo not drawn) [Compound 102], the IC50 is, setting by setting: under setting [2], 85 nM; under setting [3], 6.8 nM.
On to `CCOC(=O)N1CCC2(CC1)Cn1cc(-c3nnc(Cc4ccc(F)cc4F)s3)c(=O)c(O)c1C(=O)N2CC` [Compound 95], for which the IC50 by setting is: under setting [2], 104 nM; under setting [3], 11.6 nM.
In the case of `CCOCCN1C(=O)c2c(O)c(=O)c(C(=O)NCc3cccc(Cl)c3F)cn2CC12CCOC2` (single isomer, unassigned) [Compound 80], the IC50 is 217 nM under setting [4] and 1.7 nM under setting [5].
`CC1OCCC12N(C)C(=O)c1c(O)c(=O)c(C(=O)NCc3ccc(F)cc3F)cn1N2C` (single isomer, unassigned) [Compound 132]: the IC50 under setting [4] came to 77 nM.
For the compound `COCCCN1C(=O)c2c(O)c(=O)c(C(=O)NCc3ccc(F)cc3F)cn2CC12CCOC2` (single isomer, unassigned) [Compound 74], the IC50 reads like this: under setting [4], 28 nM; under setting [5], 3.3 nM.
As for `COCCN1C(=O)c2c(O)c(=O)c(C(=O)NCc3ccc(F)c(C)c3F)cn2CC12CCOC2` (single isomer, unassigned) [Compound 53], the IC50 runs as follows: under setting [2], 2570 nM; under setting [3], 5.3 nM.
Consider `CN1C(=O)c2c(O)c(=O)c(C(=O)NCc3c(F)cc(F)cc3F)cn2N(C)C12CCOC2` (single isomer, unassigned) [Compound 106], for which the IC50 was 27 nM under setting [4] and 0.6 nM under setting [5].
In the same order, the values of `CN1C(=O)c2c(O)c(=O)c(C(=O)NCc3ccc(F)cc3F)cn2N(C)C12COCC2(C)C` (single isomer, unassigned) [Compound 130] are 257 nM and 2.3 nM.
For the compound `CCN1C(=O)c2c(O)c(=O)c(-c3nnc(Cc4ccc(F)cc4)s3)cn2N(C)C12CCNCC2` [Compound 33], the IC50 under setting [1] turned out to be 49 nM and the IC50 under setting [2] was found to be 89 nM.
Take `CCOC(=O)N1CCC2(CC1)N(CC)C(=O)c1c(O)c(=O)c(-c3cnn(Cc4ccc(F)cc4F)c3)c(CO)n1N2C` [Compound 92]: the IC50 runs as follows: under setting [2], 3650 nM; under setting [3], 159 nM.
Take `CCCN1C(=O)c2c(O)c(=O)c(C(=O)NCc3ccc(F)cc3F)cn2CC12CCOCC2` [Compound 41]: the IC50 is, setting by setting: under setting [2], 7800 nM; under setting [3], 11.2 nM.
Consider `CCOP(=O)(CCCN1n2cc(C(=O)NCc3ccc(F)cc3F)c(=O)c(O)c2C(=O)N(C)C12CCOC2)OCC` (racemic) [Compound 161], for which, under setting [2], the IC50 came out at 227 nM.
